Measured values taken from paper PMC12718081 (ACS Infectious Diseases, 2025).
Several values for one entry are separate records, joined by “and”; a condition that tells them apart may be missing. Equal entries are not always repeated. Entries after “also recorded” stand apart in the source; their conditions may differ. Where two headings read alike, the source gives them in different places.

Assays:
Fh.TRPMPZQ = assay: Ca2+ reporter (FLIPR) activation assay, Fh.TRPMPZQ in HEK293 cells; assay type: cell-based, Fasciola hepatica; details: at the tested concentrations, data not shown
Description: (§1) Finally, selectivity for Sm.TRPMPZQ was assessed by profiling responses on the F. hepatica (Fh.TRPMPZQ) and E. granulosus (Eg.TRPMPZQ) TRPMPZQ orthologs, as well as the schistosome TRPM paralog Sm.TRPMMCLZ, a distinct TRPM channel activated by meclonazepam. Meclonazepam is an anthelmintic benzodiazepine known for its toxicity to juvenile schistosome worms.
(§2) The Ca^2+ reporter assay was performed using a Fluorescence Imaging Plate Reader (FLIPR) system, as described in the Supporting Information. […]
(§3) The half-maximal inhibitory
(§4) Windows (GraphPad Software, Boston, MA, USA; www.graphpad.com). […]
(§5) with DMSO as a negative control. […]
(§6) reader. […] The fluorescence
(§7) Untransfected HEK293 cells were used as a control.
(§8) 10% fetal bovine serum (FBS). […]
(§9) atmosphere containing 5% CO₂. Following incubation, the growth medium was removed and […]
(§10) buffer containing 2.5 mM probenecid in HBSS (with Ca²⁺ and Mg²⁺), 20 mM HEPES, 0.3% BSA (Sigma, A7030), and 0.03% L-ascorbic acid (Sigma). Cells were incubated for 40 minutes at 37 °C and subsequently for 20 minutes at room temperature. A total of seven PZQ derivatives were tested, using racemic PZQ included as a positive control on each assay plate. Drug dilutions were prepared in assay buffer without dye and probenecid and dispensed into separate flat-bottom 384-well plates. Calcium flux measurements were performed at room temperature using a […]
(§11) instrument (Molecular Devices). Baseline fluorescence was recorded for 20 seconds, followed by the addition of 5 µL of each drug solution, after which fluorescence was measured continuously for 250 seconds. […]

juvenile schistosomes = assay: Microscopy analysis of juvenile morphology and motility (viability score 0-3); details: 10 μM, 72 h, Table S1
[1] = test system: HepG2 hepatic epithelial cells; assay: in vitro; details: for Selectivity Index (CC50/EC50), Female: HepG2 CC50 / female worm motility EC50, 48 h; for Selectivity Index (CC50/EC50), Male: HepG2 CC50 / male worm motility EC50, 48 h
Description: (§12) Next, we conducted a more detailed investigation by performing dose–response assays with each compound on HepG2 hepatic epithelial cells, as the liver is one of the major organs affected in intestinal schistosomiasis.
(§13) More details are provided in the Supporting Information.
(§14) Adult worm ex-vivo high-content assay
(§15) Male and female worms were placed in 96-well microplates (one worm per well) and incubated […]
(§16) to 72 hours. Brightfield timelapse images (100 images, 0.3-second intervals) were captured from each well before, immediately after, and every 24 hours following compound addition using an ImageXpress Micro Confocal High Content System equipped with a 2x objective. Image analysis was performed through a custom pipeline in CellProfiler software (v. 4.2.1, Windows OS).57 During analysis, the area of each worm and its displacement between consecutive image captures (i.e., images taken at successive time points) were measured using the parameters “Area” and “False Negative Rate” from the MeasureObjectSizeShape and MeasureObjectOverlap modules, respectively. These measurements were then modeled by a multilevel generalized linear statistical model. The effects of the experimental treatments on parasite motility were estimated with the integrated nested Laplace approximation (INLA) method, available in the INLA package of R (https://www.r-inla.org). The half-maximal inhibitory concentration (EC50) of each compound was calculated based on the worms' estimated motility using the […] 4-parameter logistic equation in GraphPad Prism version 9.0.0 for Windows (GraphPad Software, Boston, MA, USA; www.graphpad.com). […]
(§17) either at a fixed concentration (10 µM) or across a range of concentrations (0.0001–300 µM), or with DMSO as a negative control. Two hours before the end of the experiment (t0), a resazurin solution (final concentration: 0.01 mg/mL) was added to each well and the first fluorescence […]
(§18) reader. At the end of the incubation (t1), a second reading was performed. The fluorescence attributed solely to resorufin was measured by subtracting the fluorescence readings at t0 from those at t1. The results were expressed as percentual cell viability considering negative control

in vitro = details: human, HepG2 cytotoxicity (CC50)
Description: as §12, §13, §14, §15, §16, §17, §18

Sm.TRPMMCLZ = assay: Ca2+ reporter (FLIPR) activation assay, Sm.TRPMMCLZ in HEK293 cells; assay type: cell-based, Schistosoma mansoni; details: at the tested concentrations, data not shown
Description: as §1, §2, §3, §4, §5, §6, §7, §8, §9, §10, §11

[2] = test system: adult schistosomes (male and female worms); assay: Adult worm ex vivo high-content image-based motility assay; assay type: cell-based, Schistosoma mansoni
Description: Adult schistosomes’ motility was determined using a high-content assay previously developed by our group, , with images analyzed in CellProfiler software. More details are provided in the Supporting Information.
as §14
“Area” and “False Negative Rate” from the MeasureObjectSizeShape and MeasureObjectOverlap modules, respectively. These measurements were then modeled by a multilevel generalized linear statistical model. The effects of the experimental treatments on […]
as §3, §4
with DMSO as a negative control.

Sm.TRPMPZQ (wild-type) = Sm.TRPMPZQ (wild-type) (Schistosoma mansoni, UniProt A0A5K4F0X5); assay: Ca2+ reporter (FLIPR) activation assay, wild-type Sm.TRPMPZQ in HEK293 cells; assay type: cell-based
Sequence of Sm.TRPMPZQ (wild-type) (A0A5K4F0X5 entry or part of it): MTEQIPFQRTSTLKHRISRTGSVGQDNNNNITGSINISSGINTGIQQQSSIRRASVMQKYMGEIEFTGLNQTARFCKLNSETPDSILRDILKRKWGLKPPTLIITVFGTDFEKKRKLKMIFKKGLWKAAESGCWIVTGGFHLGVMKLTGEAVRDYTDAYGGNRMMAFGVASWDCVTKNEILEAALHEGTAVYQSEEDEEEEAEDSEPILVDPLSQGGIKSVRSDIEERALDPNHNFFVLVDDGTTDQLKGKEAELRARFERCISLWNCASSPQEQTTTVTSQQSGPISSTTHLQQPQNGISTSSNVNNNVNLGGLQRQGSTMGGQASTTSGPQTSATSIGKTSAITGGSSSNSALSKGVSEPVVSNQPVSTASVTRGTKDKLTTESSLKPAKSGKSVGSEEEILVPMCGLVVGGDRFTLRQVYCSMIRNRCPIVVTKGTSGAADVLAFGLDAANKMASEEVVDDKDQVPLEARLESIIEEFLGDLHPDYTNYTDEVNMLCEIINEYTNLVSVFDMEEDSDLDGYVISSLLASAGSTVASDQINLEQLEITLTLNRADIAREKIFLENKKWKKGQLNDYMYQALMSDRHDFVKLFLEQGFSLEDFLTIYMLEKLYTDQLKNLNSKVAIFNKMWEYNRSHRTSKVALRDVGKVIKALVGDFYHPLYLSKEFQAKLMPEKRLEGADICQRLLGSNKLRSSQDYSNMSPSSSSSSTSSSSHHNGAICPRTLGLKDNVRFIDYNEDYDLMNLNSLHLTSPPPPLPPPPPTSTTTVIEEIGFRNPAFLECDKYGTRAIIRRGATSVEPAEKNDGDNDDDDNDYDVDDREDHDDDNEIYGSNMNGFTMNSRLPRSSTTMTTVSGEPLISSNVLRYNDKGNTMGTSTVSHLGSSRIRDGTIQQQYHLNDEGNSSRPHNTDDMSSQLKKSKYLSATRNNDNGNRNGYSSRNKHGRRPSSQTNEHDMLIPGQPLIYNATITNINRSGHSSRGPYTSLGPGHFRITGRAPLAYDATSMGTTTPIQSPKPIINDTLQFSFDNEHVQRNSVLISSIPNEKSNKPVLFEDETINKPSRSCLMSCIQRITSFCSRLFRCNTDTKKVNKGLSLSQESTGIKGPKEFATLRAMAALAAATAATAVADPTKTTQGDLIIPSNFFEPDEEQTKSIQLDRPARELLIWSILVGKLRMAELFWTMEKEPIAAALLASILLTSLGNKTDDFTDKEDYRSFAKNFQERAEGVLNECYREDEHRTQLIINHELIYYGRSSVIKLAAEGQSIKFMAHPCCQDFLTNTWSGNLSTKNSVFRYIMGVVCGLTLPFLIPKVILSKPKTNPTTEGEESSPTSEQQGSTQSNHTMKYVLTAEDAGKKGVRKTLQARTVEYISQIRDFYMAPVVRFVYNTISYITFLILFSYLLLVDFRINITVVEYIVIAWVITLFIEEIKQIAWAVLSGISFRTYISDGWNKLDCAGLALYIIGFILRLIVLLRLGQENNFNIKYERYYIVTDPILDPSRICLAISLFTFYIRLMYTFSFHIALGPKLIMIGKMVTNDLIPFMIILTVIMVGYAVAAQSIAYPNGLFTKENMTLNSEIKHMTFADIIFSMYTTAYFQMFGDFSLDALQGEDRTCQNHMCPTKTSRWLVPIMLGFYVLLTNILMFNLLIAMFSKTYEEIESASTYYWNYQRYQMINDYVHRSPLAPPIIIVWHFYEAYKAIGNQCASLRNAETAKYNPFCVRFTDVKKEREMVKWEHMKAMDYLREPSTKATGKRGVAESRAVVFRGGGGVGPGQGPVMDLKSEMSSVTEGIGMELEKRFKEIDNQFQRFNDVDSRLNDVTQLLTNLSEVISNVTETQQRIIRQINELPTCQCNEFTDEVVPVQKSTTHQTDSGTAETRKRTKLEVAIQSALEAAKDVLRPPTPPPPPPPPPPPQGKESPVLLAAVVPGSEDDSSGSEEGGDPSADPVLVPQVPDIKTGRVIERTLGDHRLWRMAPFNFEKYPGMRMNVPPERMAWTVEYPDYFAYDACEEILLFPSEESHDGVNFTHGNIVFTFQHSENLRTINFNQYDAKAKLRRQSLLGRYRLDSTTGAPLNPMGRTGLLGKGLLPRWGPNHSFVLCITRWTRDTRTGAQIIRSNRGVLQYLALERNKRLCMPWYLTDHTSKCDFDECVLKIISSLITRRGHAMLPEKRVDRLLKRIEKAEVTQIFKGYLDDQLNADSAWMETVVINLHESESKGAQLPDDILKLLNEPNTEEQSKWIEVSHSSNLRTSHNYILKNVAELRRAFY
Description: as §2, §3, §4, §5, §6, §7, §8, §9
buffer containing 2.5 mM probenecid in HBSS (with Ca²⁺ and Mg²⁺), 20 mM HEPES, 0.3% BSA (Sigma, A7030), and 0.03% L-ascorbic acid (Sigma). Cells were incubated for 40 minutes at 37 °C and subsequently for 20 minutes at room temperature. […]
prepared in assay buffer without dye and probenecid and dispensed into separate flat-bottom 384-well plates. Calcium flux measurements were performed at room temperature using a […]
as §11

Eg.TRPMPZQ = Eg.TRPMPZQ (Echinococcus granulosus, UniProt W6UVV9); assay: cell-based; details: HEK293, Ca2+ reporter, mean ± standard deviation; for Emax: read-out: Bmax, Eg.TRPMPZQ activation
Sequence of Eg.TRPMPZQ (W6UVV9 entry or part of it): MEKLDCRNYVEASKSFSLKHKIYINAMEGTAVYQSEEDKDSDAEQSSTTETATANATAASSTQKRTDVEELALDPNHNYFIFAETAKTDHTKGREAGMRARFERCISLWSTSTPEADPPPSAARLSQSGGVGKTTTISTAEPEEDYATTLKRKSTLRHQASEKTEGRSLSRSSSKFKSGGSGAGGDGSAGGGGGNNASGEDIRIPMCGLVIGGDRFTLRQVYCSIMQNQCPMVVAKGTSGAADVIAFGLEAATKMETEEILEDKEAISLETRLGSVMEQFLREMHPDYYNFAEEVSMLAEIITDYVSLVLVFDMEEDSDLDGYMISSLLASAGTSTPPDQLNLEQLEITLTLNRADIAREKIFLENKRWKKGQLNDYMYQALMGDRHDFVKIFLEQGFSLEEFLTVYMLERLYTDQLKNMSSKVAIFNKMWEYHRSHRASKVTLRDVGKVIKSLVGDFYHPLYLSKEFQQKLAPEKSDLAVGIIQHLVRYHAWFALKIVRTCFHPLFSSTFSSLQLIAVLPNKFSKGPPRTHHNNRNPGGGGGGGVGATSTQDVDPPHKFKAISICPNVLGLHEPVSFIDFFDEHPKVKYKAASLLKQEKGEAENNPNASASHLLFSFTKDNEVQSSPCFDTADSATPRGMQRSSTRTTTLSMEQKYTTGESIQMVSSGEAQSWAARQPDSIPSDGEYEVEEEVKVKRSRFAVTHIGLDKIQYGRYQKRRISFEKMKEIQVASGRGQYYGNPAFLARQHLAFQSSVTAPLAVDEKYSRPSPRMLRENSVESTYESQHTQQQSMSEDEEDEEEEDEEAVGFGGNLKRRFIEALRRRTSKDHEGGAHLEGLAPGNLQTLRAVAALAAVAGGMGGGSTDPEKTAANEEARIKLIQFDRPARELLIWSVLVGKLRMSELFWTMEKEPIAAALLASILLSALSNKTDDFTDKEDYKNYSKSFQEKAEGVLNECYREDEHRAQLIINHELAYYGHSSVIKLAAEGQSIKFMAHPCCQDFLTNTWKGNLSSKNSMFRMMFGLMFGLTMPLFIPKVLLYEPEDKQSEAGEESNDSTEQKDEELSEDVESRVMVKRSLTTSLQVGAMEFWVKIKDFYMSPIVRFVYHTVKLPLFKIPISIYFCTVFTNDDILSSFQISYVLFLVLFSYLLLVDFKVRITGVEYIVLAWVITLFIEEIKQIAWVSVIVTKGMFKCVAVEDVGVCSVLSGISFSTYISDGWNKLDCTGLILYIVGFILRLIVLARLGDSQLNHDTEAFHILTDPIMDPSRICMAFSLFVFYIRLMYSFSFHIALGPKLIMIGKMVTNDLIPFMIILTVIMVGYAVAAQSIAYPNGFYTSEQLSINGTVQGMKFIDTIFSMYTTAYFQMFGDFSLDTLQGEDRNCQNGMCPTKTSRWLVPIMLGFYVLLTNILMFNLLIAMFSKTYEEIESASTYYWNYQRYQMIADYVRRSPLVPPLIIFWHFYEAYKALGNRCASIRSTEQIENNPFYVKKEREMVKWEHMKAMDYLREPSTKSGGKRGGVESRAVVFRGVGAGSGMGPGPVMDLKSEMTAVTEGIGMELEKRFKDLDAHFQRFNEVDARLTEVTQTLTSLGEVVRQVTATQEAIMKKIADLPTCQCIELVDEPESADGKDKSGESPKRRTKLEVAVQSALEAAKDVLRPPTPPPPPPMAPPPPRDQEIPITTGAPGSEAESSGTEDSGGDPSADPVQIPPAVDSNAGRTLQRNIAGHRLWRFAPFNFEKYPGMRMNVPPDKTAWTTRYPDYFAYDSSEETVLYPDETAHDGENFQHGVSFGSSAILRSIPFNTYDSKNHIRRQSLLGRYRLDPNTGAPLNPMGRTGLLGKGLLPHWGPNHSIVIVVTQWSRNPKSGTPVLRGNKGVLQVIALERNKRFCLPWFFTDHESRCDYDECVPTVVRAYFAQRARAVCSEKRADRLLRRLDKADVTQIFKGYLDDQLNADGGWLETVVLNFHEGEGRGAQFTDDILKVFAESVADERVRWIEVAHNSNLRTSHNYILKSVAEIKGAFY

[3] = values of independent experiments
[4] = Schistosoma mansoni, 0 h, female adult worms, 0 h (immediately after addition), single experiment or geometric mean, read-out: Female worm motility inhibition (EC50)
[5] = Schistosoma mansoni, 0 h, male adult worms, 0 h (immediately after addition), single experiment or geometric mean, read-out: Male worm motility inhibition (EC50)
[6] = Schistosoma mansoni, 0 h, male, 0 h, individual experiments, read-out: Male worm motility inhibition (EC50), values of independent experiments
[7] = Schistosoma mansoni, 24 h, female adult worms, 24 h, single experiment or geometric mean, read-out: Female worm motility inhibition (EC50)
[8] = Schistosoma mansoni, 24 h, male adult worms, 24 h, single experiment or geometric mean, read-out: Male worm motility inhibition (EC50)
[9] = Schistosoma mansoni, 24 h, male, 24 h, individual experiments, read-out: Male worm motility inhibition (EC50), values of independent experiments
[10] = Schistosoma mansoni, 48 h, female adult worms, 48 h, single experiment or geometric mean, read-out: Female worm motility inhibition (EC50)
[11] = Schistosoma mansoni, 48 h, male adult worms, 48 h, single experiment or geometric mean, read-out: Male worm motility inhibition (EC50)
[12] = Schistosoma mansoni, 48 h, male, 48 h, individual experiments, read-out: Male worm motility inhibition (EC50), values of independent experiments
[13] = Schistosoma mansoni, 72 h, female adult worms, 72 h, single experiment or geometric mean, read-out: Female worm motility inhibition (EC50)
[14] = Schistosoma mansoni, 72 h, male adult worms, 72 h, single experiment or geometric mean, read-out: Male worm motility inhibition (EC50)
[15] = Schistosoma mansoni, 72 h, male, 72 h, individual experiments, read-out: Male worm motility inhibition (EC50), values of independent experiments
[16] = female adult worms, 0 h (immediately after addition), single experiment or geometric mean, read-out: Female worm motility inhibition (EC50)
[17] = female adult worms, 24 h, single experiment or geometric mean, read-out: Female worm motility inhibition (EC50)
[18] = male adult worms, 0 h (immediately after addition), single experiment or geometric mean, read-out: Male worm motility inhibition (EC50)
[19] = male adult worms, 48 h, single experiment or geometric mean, read-out: Male worm motility inhibition (EC50)
[20] = male adult worms, 72 h, single experiment or geometric mean, read-out: Male worm motility inhibition (EC50)
[21] = male, 24 h, individual experiments, read-out: Male worm motility inhibition (EC50), values of independent experiments
[22] = male, 48 h, individual experiments, read-out: Male worm motility inhibition (EC50), values of independent experiments
[23] = male, 72 h, individual experiments, read-out: Male worm motility inhibition (EC50), values of independent experiments

Compound | number of juvenile worms with viability score 0 (juvenile schistosomes) | number of juvenile worms with viability score 1 (juvenile schistosomes) | number of juvenile worms with viability score 2 (juvenile schistosomes) | number of juvenile worms with viability score 3 (juvenile schistosomes) | Selectivity Index (CC50/EC50), Female [1] | Selectivity Index (CC50/EC50), Male [1] | CC50 at 48 h (in vitro) | CC50 at 48 h (in vitro; [3]) | EC50 [2, 4] | EC50 [2, 5] | EC50 [2, 6] | EC50 [2, 7] | EC50 [2, 8] | EC50 [2, 9] | EC50 [2, 10] | EC50 [2, 11] | EC50 [2, 12] | EC50 [2, 13] | EC50 [2, 14] | EC50 [2, 15] | further results
O=C(C1CCCCC1)N1CC(=O)N2CCc3ccc([N+](=O)[O-])cc3C2C1 (centres unmarked) [Compound 2, 9-NO2–PZQ] | 70 | 3 | 7 | 74 | 12.7 and 13 | 23.1 and 23 | 368 µM | 354 µM | 27.7 µM | 10.7 µM | 10 µM | 28.8 µM | 14.3 µM | 10.3 µM | 29.1 µM | 15.9 µM | 11.6 µM | 30 µM | 15.4 µM | 11.9 µM | activation of Fh.TRPMPZQ (Fh.TRPMPZQ): did not activate; activation of Sm.TRPMMCLZ (Sm.TRPMMCLZ): did not activate; EC50 [2, 16]: 27.7 µM; EC50 [2, 17]: 29 µM; EC50 ([2]; female adult worms, 48 h, single experiment or geometric mean, read-out: Female worm motility inhibition (EC50)): 29 µM; EC50 [2, 18]: 11 µM; EC50 ([2]; male adult worms, 24 h, single experiment or geometric mean, read-out: Male worm motility inhibition (EC50)): 14 µM; EC50 [2, 19]: 16 µM; EC50 [2, 20]: 15 µM; EC50 [2, 21]: 19.8 µM; EC50 [2, 22]: 21.7 µM; EC50 [2, 23]: 19.9 µM; EC50 (Sm.TRPMPZQ (wild-type); 0.001 to 100 μM): 13.5 ± 0.49 µM; Emax (Sm.TRPMPZQ (wild-type); read-out: Bmax, wild-type Sm.TRPMPZQ activation): 66.6 ± 1.98%; Emax (Eg.TRPMPZQ): 114 ± 10.5%
O=C(C1CCCCC1)N1CC(=O)N2CCc3ccc(-n4cc(C5=CCCCC5)nn4)cc3C2C1 (centres unmarked) [Compound 5b] | 21 | 1 | 3 | 7 | 0.3 | 0.6 | 28.5 µM | 28.7 µM | 101 µM | 32.7 µM | 31.6 µM | 96.2 µM | 47 µM | 50.4 µM | 95 µM | 49.2 µM | 54.2 µM | 89.1 µM | 40.5 µM | 44.7 µM | Selectivity Index (SI), sex not specified ([1]; HepG2 vs adult worms, 48 h): < 1; EC50 ([2]; Schistosoma mansoni, female, 0-72 h, read-out: EC50 against female adult worms (motility), span over incubation times): > 30 µM; EC50 ([2]; Schistosoma mansoni, male, 0-72 h, read-out: EC50 against male adult worms (motility), span over incubation times): > 30 µM; EC50 [2, 16]: 101 µM; EC50 [2, 17]: 96 µM; EC50 ([2]; female adult worms, 72 h, single experiment or geometric mean, read-out: Female worm motility inhibition (EC50)): 89 µM; EC50 [2, 18]: 33 µM; EC50 [2, 19]: 49 µM; EC50 [2, 20]: 40 µM; EC50 [2, 21]: 43.8 µM; EC50 [2, 22]: 44.6 µM; EC50 [2, 23]: 36.6 µM; Bmax, wild-type Sm.TRPMPZQ activation (Sm.TRPMPZQ (wild-type)): No activity; EC50 for wild-type Sm.TRPMPZQ activation (Sm.TRPMPZQ (wild-type); 0.001 to 100 μM): failed to activate; also recorded: No activity; EC50 for Eg.TRPMPZQ activation (Eg.TRPMPZQ): No signal; Emax (Eg.TRPMPZQ): 10.4 ± 0.31%
